Experimental data from the CheMixHub viscosity set.

Assay: xn = mol fraction of the nth substance listed

CC12CC3CC(C)(C1)CC(C)(C3)C2 + CCCCCCCCC
viscosity [mPa·s], 100 kPa
Conditions | x1 = 0.1012 | x1 = 0.2132 | x1 = 0.3009 | x1 = 0.3978 | x1 = 0.4998 | x1 = 0.6007 | x1 = 0.6969 | x1 = 0.7984 | x1 = 0.8985
293.15 K | 0.831 | 0.936 | 1.021 | 1.11 | 1.231 | 1.395 | 1.593 | 1.852 | 2.201
298.15 K | 0.775 | 0.87 | 0.95 | 1.028 | 1.135 | 1.282 | 1.458 | 1.685 | 1.995
303.15 K | 0.726 | 0.812 | 0.883 | 0.952 | 1.052 | 1.183 | 1.342 | 1.544 | 1.818
308.15 K | 0.682 | 0.76 | 0.825 | 0.889 | 0.978 | 1.095 | 1.238 | 1.418 | 1.662
313.15 K | 0.639 | 0.711 | 0.771 | 0.831 | 0.914 | 1.022 | 1.147 | 1.309 | 1.526
318.15 K | 0.603 | 0.67 | 0.724 | 0.781 | 0.859 | 0.954 | 1.067 | 1.212 | 1.408
323.15 K | 0.569 | 0.633 | 0.681 | 0.737 | 0.807 | 0.894 | 0.996 | 1.13 | 1.304

CCCCCCCC + CCCCCCCCCC
viscosity [mPa·s]
Conditions | 297.95 K | 298.15 K | 313.05 K
101 kPa, x1 = 0.1384 | 0.8136 | – | 0.6803
101 kPa, x1 = 0.2144 | 0.7783 | – | 0.6439
101 kPa, x1 = 0.3015 | 0.7465 | – | 0.6261
101 kPa, x1 = 0.3894 | 0.6993 | – | 0.5975
101 kPa, x1 = 0.452 | 0.6767 | – | 0.5817
101 kPa, x1 = 0.601 | 0.6312 | – | 0.5417
101 kPa, x1 = 0.6988 | 0.5898 | – | 0.5129
101 kPa, x1 = 0.8208 | 0.5543 | – | 0.4761
101 kPa, x1 = 0.8858 | 0.5327 | – | 0.4643
101.33 kPa, x1 = 0.1059 | – | 0.8166 | –
101.33 kPa, x1 = 0.2142 | – | 0.7747 | –
101.33 kPa, x1 = 0.3038 | – | 0.7382 | –
101.33 kPa, x1 = 0.4052 | – | 0.6937 | –
101.33 kPa, x1 = 0.5057 | – | 0.6694 | –
101.33 kPa, x1 = 0.6061 | – | 0.6305 | –
101.33 kPa, x1 = 0.7032 | – | 0.6018 | –
101.33 kPa, x1 = 0.8002 | – | 0.5722 | –
101.33 kPa, x1 = 0.9058 | – | 0.5366 | –

c1ccccc1 + CCCCCCCCCC
Conditions | viscosity [mPa·s]
298 K, 101 kPa, x1 = 0.5 | 0.6712
298.15 K, 101.33 kPa, x2 = 0.03584 | 0.6003
298.15 K, 101.33 kPa, x2 = 0.1004 | 0.5986
298.15 K, 101.33 kPa, x2 = 0.2013 | 0.6012
298.15 K, 101.33 kPa, x2 = 0.2902 | 0.613
298.15 K, 101.33 kPa, x2 = 0.3988 | 0.6372
298.15 K, 101.33 kPa, x2 = 0.5 | 0.6648
298.15 K, 101.33 kPa, x2 = 0.5943 | 0.6949
298.15 K, 101.33 kPa, x2 = 0.7021 | 0.7313
298.15 K, 101.33 kPa, x2 = 0.8353 | 0.7784
298.15 K, 101.33 kPa, x2 = 0.9165 | 0.8085
318 K, 101 kPa, x1 = 0.5 | 0.5262

CC12CC3CC(C)(C1)CC(C)(C3)C2 + CCCCCCCCCCC
viscosity [mPa·s], 100 kPa
Conditions | x1 = 0.1004 | x1 = 0.1998 | x1 = 0.3004 | x1 = 0.4006 | x1 = 0.4992 | x1 = 0.6045 | x1 = 0.7008 | x1 = 0.8138 | x1 = 0.9014
293.15 K | 1.267 | 1.341 | 1.419 | 1.514 | 1.628 | 1.772 | 1.935 | 2.161 | 2.369
298.15 K | 1.16 | 1.227 | 1.294 | 1.374 | 1.47 | 1.595 | 1.737 | 1.939 | 2.134
303.15 K | 1.071 | 1.121 | 1.187 | 1.264 | 1.351 | 1.463 | 1.589 | 1.762 | 1.926
308.15 K | 0.987 | 1.038 | 1.095 | 1.165 | 1.246 | 1.348 | 1.46 | 1.612 | 1.76
313.15 K | 0.92 | 0.965 | 1.019 | 1.083 | 1.152 | 1.241 | 1.34 | 1.475 | 1.605
318.15 K | 0.86 | 0.9 | 0.948 | 1.006 | 1.073 | 1.155 | 1.245 | 1.369 | 1.48
323.15 K | 0.802 | 0.843 | 0.889 | 0.943 | 1.001 | 1.073 | 1.153 | 1.261 | 1.362

CCCCCCCCCCCCCC + CCCCCCCCCCCCCCCC
293.15 K, 101.33 kPa
Conditions | viscosity [mPa·s]
x1 = 0.276 | 3.067
x1 = 0.533 | 2.789
x1 = 0.773 | 2.529

CCCCCCCCCCCCCC + CCCCCCCCCCO
100 kPa, x1 = 0.3338
Conditions | viscosity [mPa·s]
298.2 K | 5.36
308.2 K | 3.89
318.2 K | 2.92
